Assays:
MC38 tumor cells = assay: MC38 subcutaneous tumor model in C57BL/6 mice, tumor volume by caliper; assay type: in vivo; parameters: Percent inhibition of tumor volume: concentration or dose not given beside the values; conditions: for Percent inhibition of tumor volume: negative values indicate an increase in tumor volume; for Mean tumor volume: PTC124 20 mg/kg i.p. QD, antibodies 10 mg/kg (anti-CD8 200 ug/mouse) BIW x 3 weeks
Protocol: Animals: Female 6-8 week old (estimated age at inoculation) C57BL/6 mice were obtained from Shanghai Lingchang Bio-Technology Co. Ltd (LC, Shanghai, China). The animals were housed at 20˜26° C. with a 12 hours light and 12 hours darkness cycle.
Cell Culture: MC38 tumor cells were maintained in vitro as a monolayer culture in DMEM medium supplemented with 10% fetal bovine serum at 37° C. in an atmosphere of 5% CO2 in air. The tumor cells were routinely subcultured twice weekly. Cells in an exponential growth phase were harvested and counted for tumor inoculation.
Therapeutic compounds: Ataluren (PTC124) was obtained from Selleck Chemicals (Houston, Tex.). Anti-PD-1 and anti-CTLA-4 antibodies were obtained from BioXCell as was an anti-CD8 antibody.
Tumor Inoculation: Each mouse was inoculated subcutaneously at the right lower flank region with MC38 tumor cells (1×10^6) in 0.1 mL of PBS for tumor development. The treatments were started when the mean tumor size reaches approximately 50 mm^3. The date of tumor cell inoculation was denoted as day 0.
Group assignment: Before grouping and treatment, all animals were weighed and the tumor volumes measured using a caliper. Tumor volume was used as numeric parameter to randomize selected animals into specified groups in order to minimize systematic error. The grouping was performed by using StudyDirector™ software (Studylog Systems, Inc. CA, USA). One optimal randomization design (generated by Matched distribution) showing minimal group to group variation in tumor volume was selected for group allocation.
After tumor cell inoculation, the animals were checked daily for morbidity and mortality as well as any effects of tumor growth and treatments on normal behavior such as mobility, visual estimation of food and water consumption, body weight gain/loss, eye/hair matting and any other abnormal effect. Tumor volumes were measured twice weekly at least in two dimensions using a caliper, and the volume expressed in mm^3 using the formula: V=0.5 a×b^2 where a and b are the long and short diameters of the tumor, respectively.

[1] = system: CD3+ immune cells infiltrating tumor tissue; assay: Immunohistochemistry of sectioned tumor tissue for immune cell infiltration; assay type: in vivo, C57BL/6 mice; conditions: FIG. 4
Protocol: Immunohistochemistry (IHC): Formalin-fixed paraffin-embedded (FFPE) tissue from tumor samples were sectioned to 4 um. Antigen retrieval (AR) was conducted at 100° C., in EDTA buffer, at pH 9.0 for 20 min. Primary antibody (diluted with validated concentration), RT 60 min+ secondary antibody (ready-to-use), RT 60 min+Bond Polymer Refine Detection.

[2] = phase-I clinical study in cystic fibrosis; cited from earlier work
[3] = system: intratumoral T-cell infiltrates (CD45+, CD3+, CD8+, and CD4+ cells); assay: FACS analysis for intratumoral T-cell infiltrates; assay type: in vivo, C57BL/6 mice; conditions: FIG. 5
Protocol: FACS analysis: Tumor cells were isolated from each treatment group and FACS analysis performed according to methods which are well known in the art.

normal stop codons = conditions: cited from earlier work

Q: Which “Percent inhibition of tumor volume” value (MC38 tumor cells; Day 9) does the source give for `O=C(O)c1cccc(-c2noc(-c3ccccc3F)n2)c1` [PTC124, 3-[5-(2-Fluorophenyl)-1,2,4-oxadiazol-3-yl]benzoic acid] here?
A: −0.96%

Q: What about the Mean tumor volume (MC38 tumor cells; Day 9 after inoculation (randomization)) of the same compound?
A: 52.46 mm^3

Q: And the Mean tumor volume (MC38 tumor cells; Day 12)?
A: 72.34 mm^3

Q: And the “Percent inhibition of tumor volume” value (MC38 tumor cells; Day 12)?
A: 13.94%

Q: What about the Mean tumor volume (MC38 tumor cells; Day 15) of the same compound?
A: 128.58 mm^3

Q: What about the “Percent inhibition of tumor volume” value (MC38 tumor cells; Day 15) of the same compound?
A: 1.20%

Q: And the Mean tumor volume (MC38 tumor cells; Day 18)?
A: 231.26 mm^3

Q: And the “Percent inhibition of tumor volume” value (MC38 tumor cells; Day 18)?
A: 19.87%

Q: And the Mean tumor volume (MC38 tumor cells; Day 22)?
A: 388.94 mm^3

Q: And the “Percent inhibition of tumor volume” value (MC38 tumor cells; Day 22)?
A: 18.64%

Q: What about the Mean tumor volume (MC38 tumor cells; Day 25) of the same compound?
A: 617.86 mm^3

Q: And the “Percent inhibition of tumor volume” value (MC38 tumor cells; Day 25)?
A: 22.82%

Q: What about the Mean tumor volume (MC38 tumor cells; Day 29) of the same compound?
A: 988.37 mm^3

Q: What about the “Percent inhibition of tumor volume” value (MC38 tumor cells; Day 29) of the same compound?
A: 21.47%

Q: What about the Mean tumor volume (MC38 tumor cells; Day 32) of the same compound?
A: 1459.49 mm^3

Q: And the “Percent inhibition of tumor volume” value (MC38 tumor cells; Day 32)?
A: 18.16%

Q: What about the “Tumor inhibition (in words)” value (MC38 tumor cells; MC38 tumor-bearing C57BL/6 mice, Table 6, FIGS. 1-3) of the same compound?
A: has tumor inhibition-promoting properties

Q: And the “CD3+ immune cells infiltrating tumor tissue (immunohistochemical analysis)” value [1]?
A: significant numbers of CD3+ immune cells infiltrating tumor tissue

Q: What about the “Read-through activity compared with aminoglycosides” value [2] of the same compound?
A: more efficient read-through activity than aminoglycosides

Q: What about the Tolerability [2] of the same compound?
A: generally well tolerated

Q: And the “Intratumoral T-cell infiltrates (CD45+, CD3+, CD8+, and CD4+ cells) by FACS” value [3]?
A: increased intratumoral T-cell infiltrates

Q: And the “Ribosomal read-through of normal stop codons” value (normal stop codons)?
A: does not induce ribosomal read-through of normal stop codons

Reference: patent US10898483B2, “Methods for inducing an immune response by promoting premature termination codon read-through” (MOONSHOT PHARMA LLC, priority 2015, dated 2021)
